Tested on: Dog Coronary Artery
Assay: Dog coronary artery test: relaxation of KCl-contracted coronary artery rings
Format: cell-based
Details: Canis lupus familiaris, coronary artery rings contracted with 50 mM KCl, 37° C.; IC50 = 50% relaxation; mean values, probit analysis
Experimental: Mongrel dogs of either sex and weighing 15 to 30 kg were anesthetized with pentobarbital (35 mg/kg). Each heart was quickly removed through a right thoracotomy and placed in Kreb's bicarbonate solution of the following composition (mM/L): NaCl, 118.2; KCl, 4.6; CaCl2.2H2 O, 1.6; KH2 PO4, 1.2; MgSO4.7H2 O, 1.2; NaHCO3, 24.8; and dextrose, 10.0. The medium was kept at room temperature and saturated with 95% O2 /5% CO2. The left anterior descending and circumflex coronary arteries were isolated and used either immediately or stored overnight at 5° C. Arteries were cut into rings approximately 2 to 3 mm wide, placed on 2 L-shaped hooks and mounted in a 10 ml organ bath by attaching one hook to a stationary glass rod and the other hook to a force-displacement transducer. Tissue medium consisted of Kreb's bicarbonate solution maintained at 37° C. and bubbled with 95 % O2 /5% CO2. Artery rings were equilibrated for 1-2 hours under a resting tension of 3 g. Tissue medium was then changed to one containing 50 mM KCl and 72.8 mM NaCl but otherwise identical to Kreb's bicarbonate solution. After tissues achieved a steady state contractile tension (1-2 hours) a given test agent was added to each bath and concentration-response curves determined. […] At the end of the concentration-response curve, tissue medium was changed to one identical to the 50 mM KCl buffer but containing 2.5 mM EGTA and no CaCl2.2H2 O to obtain complete relaxation of the tissue. Percent relaxation was then determined for each concentration and values producing 50% relaxation (IC50) were estimated using a probit analysis.

Row | IC50 | SMILES
1 | 79.4 nM | CCOC(=O)C1=C(C)NC(C)=C(C(=O)OCC)C1c1csc2ccccc12 [Example 3, 4-Benzo[b]thien-3-yl-1,4-dihydro-2,6-dimethyl-3,5-pyridinedicarboxylic acid, diethyl ester]
2 | 3160 nM | CCOC(=O)C1=C(C)NC(C)=C(C(=O)OCC)C1c1csc2ccc(Cl)cc12 [Example 4, 4-(5-Chlorobenzo[b]thien-3-yl)-1,4-dihydro-2,6-dimethyl-3,5-pyridinedicarboxylic acid, diethyl ester]
3 | 126 nM | CCOC(=O)C1=C(C)NC(C)=C(C(=O)OCC)C1c1csc2cccnc12 [Example 11, 1,4-Dihydro-2,6-dimethyl-4-thieno[3,2-b]pyridin-3-yl-3,5-pyridinedicarboxylic acid, diethyl ester]
4 | 40.7 nM | CCOC(=O)C1=C(C)NC(C)=C(C(=O)OCC)C1c1csc2cnccc12 [Example 12, 1,4-Dihydro-2,6-dimethyl-4-thieno[2,3-c]pyridin-3-yl-3,5-pyridinedicarboxylic acid, diethyl ester]
5 | 871 nM | CCOC(=O)C1=C(C)NC(C)=C(C(=O)OCC)C1c1csc2ncccc12 [Example 13, 1,4-Dihydro-2,6-dimethyl-4-thieno[2,3-b]pyridin-3-yl-3,5-pyridinedicarboxylic acid, diethyl ester]
6 | 407 nM | CCOC(=O)C1=C(C)NC(C)=C(C(=O)OCC)C1c1c(C)sc2ccccc12 [Example 16, 1,4-Dihydro-2,6-dimethyl-4-(2-methylbenzo[b]thien-3-yl)-3,5-pyridinedicarboxylic acid, diethyl ester]
7 | 3470 nM | CCOC(=O)C1=C(C)NC(C)=C(C(=O)OCCN(C)Cc2ccccc2)C1c1csc2ccccc12 (stereo not drawn) [Example 18, 4-Benzo[b]thien-3-yl-1,4-dihydro-2,6-dimethyl-3,5-pyridinedicarboxylic acid, 3-ethyl 5-(2-[methyl(phenylmethyl)amino]ethyl)ester]
8 | 39800 nM | CCOC(=O)C1=C(C)NC(C)=C(C(=O)OCC)C1c1csc2ccc(Br)cc12 [Example 22, 4-(5-Bromobenzo[b]thien-3-yl)-1,4-dihydro-2,6-dimethyl-3,5-pyridinedicarboxlic acid, diethyl ester]
9 | 7080 nM | CCOC(=O)C1=C(C)NC(C)=C(C(=O)OCC)C1c1c(Br)sc2ccccc12 [Example 23, 4-(2-Bromobenzo[b]thien-3-yl)-1,4-dihydro-2,6-dimethyl-3,5-pyridinedicarboxylic acid, diethyl ester]
10 | 1700 nM | CCOC(=O)C1=C(C)NC(C)=C(C(=O)OCC)C1c1csc2c([N+](=O)[O-])cccc12 [Example 25, 1,4-Dihydro-2,6-dimethyl-4-(7-nitrobenzo[b]thien-3-yl)-3,5-pyridinedicarboxylic acid, diethyl ester]
11 | 229 nM | CCOC(=O)C1=C(C)NC(C)=C(C(=O)OCC)C1c1csc2ccc([N+](=O)[O-])cc12 [Example 26, 1,4-Dihydro-2,6-dimethyl-4-(5-nitrobenzo[b]thien-3-yl)-3,5-pyridinedicarboxylic acid, diethyl ester]
12 | 204 nM | CCOC(=O)C1=C(C)NC(C)=C(C(=O)OCC)C1c1csc2cc([N+](=O)[O-])ccc12 [Example 27, 1,4-Dihydro-2,6-dimethyl-4-(6-nitrobenzo[b]thien-3-yl)-3,5-pyridinedicarboxylic acid, diethyl ester]
13 | 155 nM | CCOC(=O)C1=C(C)NC(C)=C(C(=O)OCC)C1c1csc2cccc([N+](=O)[O-])c12 [Example 28, 1,4-Dihydro-2,6-dimethyl-4-(4-nitrobenzo[b]thien-3-yl)-3,5-pyridinecarboxylic acid, diethyl ester]
14 | 1350 nM | CCOC(=O)C1=C(C)NC(C)=C(C(=O)OCC)C1c1csc2cc(N)ccc12 [Example 29, 4-(6-Aminobenzo[b]thien-3-yl)-1,4-dihydro-2,6-dimethyl-3,5-pyridinecarboxylic acid, diethyl ester]
15 | 126 nM | COC(=O)C1=C(C)NC(C)=C(C(=O)OCCN(C)Cc2ccccc2)C1c1csc2ccncc12 (stereo not drawn) [Example 31, 1,4-Dihydro-2,6-dimethyl-4-thieno[3,2-c]pyridin-3-yl-3,5-pyridine dicarboxylic acid, 3-methyl 5-(2-[methyl(phenylmethyl)amino]ethyl)ester]
16 | 21400 nM | CC1=C(C(=O)OCCN(C)Cc2ccccc2)C(c2csc3ccccc23)C(C(=O)OCCN(C)Cc2ccccc2)=C(C)N1 [Example 32]

Second part, the compound before the results:

Row | SMILES | IC50
17 | CCOC(=O)C1=C(C)NC(C)=C(C(=O)OCC)C1c1cc2ccccc2s1 [Example 1, 4-Benzo[b]thien-2-yl-1,4-dihydro-2,6-dimethyl-3,5-pyridinedicarboxylic acid, diethyl ester] | 110000 nM
18 | CCOC(=O)C1=C(C)NC(C)=C(C(=O)OCC)C1c1cc2cnccc2s1 [Example 2, 1,4-Dihydro-2,6-dimethyl-4-(thieno[3,2-c]pyridin-2-yl)-3,5-pyridinedicarboxylic acid, diethyl ester] | 10700 nM
19 | CCOC(=O)C1=C(C)NC(C)=C(C(=O)OCC)C1c1c(C)sc2ccncc12 [Example 6, 1,4-Dihydro-2,6-dimethyl-4-(2-methylthieno[3,2-c]pyridin-3-yl)-3,5-pyridinedicarboxylic acid, diethyl ester] | 398 nM
20 | CC1=C(C(=O)OC(C)C)C(c2csc3ccncc23)C(C(=O)OC(C)C)=C(C)N1 [Example 7, 1,4-Dihydro-2,6-dimethyl-4-thieno[3,2-c]pyridin-3-yl-3,5-pyridinedicarboxylic acid, diisopropyl ester] | 398 nM
21 | COCCOC(=O)C1=C(C)NC(C)=C(C(=O)OCCOC)C1c1csc2ccncc12 [Example 8, 1,4-Dihydro-2,6-dimethyl-4-thieno[3,2-c]pyridin-3-yl-3,5-pyridinedicarboxylic acid, bis(2-methoxyethyl)ester] | 501 nM
22 | COC(=O)C1=C(C)NC(C)=C(C(=O)OC)C1c1csc2ccncc12 [Example 9, 1,4-Dihydro-2,6-dimethyl-4-thieno[3,2-c]pyridin-3-yl-3,5-pyridinedicarboxylic acid, dimethyl ester] | 100 nM
23 | CCCOC(=O)C1=C(C)NC(C)=C(C(=O)OCCC)C1c1csc2ccncc12 [Example 10, 1,4-Dihydro-2,6-dimethyl-4-thieno[3,2-c]pyridin-3-yl-3,5-pyridinedicarboxylic acid, dipropyl ester] | 251 nM
24 | CCOC(=O)C1=C(C)NC(C)=C(C(=O)OCC)C1c1csc2c(C)nccc12 [Example 14, 1,4-Dihydro-2,6-dimethyl-4-(7-methylthieno[2,3-c]pyridin-3-yl)-3,5-pyridinedicarboxylic acid, diethyl ester] | 3160 nM
25 | CCOC(=O)C1=C(C)NC(C)=C(C(=O)OCC)C1c1c(SC)sc2ccccc12 [Example 15, 1,4-Dihydro-2,6-dimethyl-4-[2-(methylthio)benzo[b]thien-3-yl]-3,5-pyridinedicarboxylic acid, diethyl ester] | 2750 nM
26 | CCOC(=O)C1=C(C)NC(C)=C(C(=O)OC(C)C)C1c1csc2ccncc12 (stereo not drawn) [Example 17, 1,4-Dihydro-2,6-dimethyl-4-thieno[3,2-c]pyridin-3-yl-3,5-pyridinedicarboxylic acid, 3-ethyl 5-isopropyl ester] | 83.2 nM
27 | COC(=O)C1=C(C)NC(C)=C(C(=O)OC(C)C)C1c1csc2ccncc12 (stereo not drawn) [Example 20, 1,4-Dihydro-2,6-dimethyl-4-thieno[3,2-c]pyridin-3-yl-3,5-pyridinedicarboxylic acid, 3-methyl 5-isopropyl ester] | 15.8 nM
28 | COCCOC(=O)C1=C(C)NC(C)=C(C(=O)OC)C1c1csc2ccncc12 (stereo not drawn) [Example 21, 1,4-Dihydro-2,6-dimethyl-4-thieno[3,2-c]pyridine-3-yl-3,5-pyridinedicarboxylic acid, 3-methyl 5-(2-methoxyethyl)ester] | 61.7 nM
29 | CCOC(=O)C1=C(C)NC(C)=C(C(=O)OCC)C1c1nccc2ccsc12 [Example 24, 1,4-Dihydro-2,6-dimethyl-4-thieno[2,3-c]pyridin-7-yl-3,5-pyridinedicarboxylic acid, diethyl ester] | 83.2 nM
30 | CCOC(=O)C1=C(C)NC(C)=C(C(=O)OC)C1c1csc2ccncc12 (stereo not drawn) [Example 33, 1,4-Dihydro-2,6-dimethyl-4-thieno[3,2-c]pyridin-3-yl-3,5-pyridinedicarboxylic acid, ethyl methyl ester] | 30.2 nM
31 | COC(=O)C1=C(C)NC(C)=C(C(=O)OCCC#N)C1c1csc2ccncc12 (stereo not drawn) [Example 34, 1,4-Dihydro-2,6-dimethyl-4-thieno[3,2-c]pyridin-3-yl-3,5-pyridinedicarboxylic acid, 2-cyanoethyl methyl ester] | 316 nM

Same assay, conditions: coronary artery rings contracted with 50 mM KCl, 37° C.; IC50 = 50% relaxation; mean values, probit analysis

Row | -log IC50 | SMILES
32 | 7.55 | CCOC(=O)C1=C(C)NC(C)=C(C(=O)OCC)C1c1csc2ccncc12 [Example 5, 1,4-Dihydro-2,6-dimethyl-4-thieno[3,2-c]pyridin-3-yl-3,5-pyridinedicarboxylic acid, diethyl ester]
33 | 7.0 | CCOC(=O)C1=C(C)NC(C)=C(C(=O)OCCOC)C1c1csc2cccnc12 (stereo not drawn) [Example 19, 1,4-Dihydro-2,6-dimethyl-4-thieno[3,2-]pyridin-3-yl-3,5-pyridinedicarboxylic acid, 3-ethyl 5-(2-methoxyethyl)ester]
